Measurements reported in PubChem BioAssay AID179 (DTP/NCI, 2004).
“And” between values parts separate entries of the source, which are not always exact repeats. Equal values may be shown once. The source made the active and inactive calls.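 The calls were made as follows: active = compounds giving half or more protection of infected cells from virus-caused growth loss, again on retest; inactive = the rest.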

Tested on: CEM cells HIV-1 protection, formazan growth assay
Experiment: NCI AIDS Antiviral Assay
Details: for IC50: measured here: growth of uninfected CEM cells
How it was run: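 Human CEM cells, uninfected and HIV-1-infected, exposed to five drug concentrations; growth measured by soluble formazan assay and scored as percent protection from infection, with protecting compounds retested.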

SMILES	EC50 [µM]	IC50	outcome
O=C(O)c1ccccc1/C=C1\Cc2cc3c(cc2C1=O)CCC3	> 200	> 200 µM	–
CN(C)c1ccc(/C=C(/C(=O)O)c2csc(-c3nc(/C(=C\c4ccc(N(C)C)cc4)C(=O)O)cs3)n2)cc1	> 34.7	> 34.7 µM	–
O=[N+]([O-])c1cc(S(=O)(=O)c2ccc(O)c([N+](=O)[O-])c2)ccc1O	> 200	> 100 µM	–
CCCCCCCCCCCCCCC[C@@H](O)C[N+](C)(C)CCO	> 200	2.82 µM	–
CC(C)(C)C1=C(Br)C(O)(C(C)(C)C)OP1(=O)c1ccccc1 (centres undefined)	> 200	151 µM	–
Cc1cc(NS(=O)(=O)c2ccc(Nc3c4ccccc4nc4c(C(=O)N5CCN(CCOS(C)(=O)=O)CC5)cccc34)cc2)no1	> 44.7	> 44.7 µM	–
N#CC(/C=C/c1ccccc1)Nc1ccccc1CO (centres undefined)	> 27.5	> 27.5 µM	–
COc1ccc(-c2c3c(nc4nc(SCCc5ccccc5)nc(N)c24)CCCC3)cc1OC	> 200	> 200 µM	–
COc1ccc(NC(=O)CSc2nc(C)nc3c2sc(=S)n3-c2ccccc2)cc1	> 200	> 200 µM	–
CN(C)P(=O)(N(C)C)N(C)C	> 200	> 200 µM	–
O=c1ccc2ccccc2o1	> 1700	1410 µM	–
O=C1CCC[C@]2(C1)Cc1ccccc1N2	> 468	288 µM	–
Clc1ccc(N=c2ccc3ccccc3[oH+]2)cc1.Clc1ccc(N=c2ccc3ccccc3[oH+]2)cc1.[Ni]	–	–	inactive
COc1cc(Br)c(OC)c2c(OC)cc(C)cc12	> 200	35.5 µM	–
COc1cc(/C=C\c2ccc(SC)cc2)cc(OC)c1OC	> 42.7	0.0724 µM	–
COC1/C=C\OC2(C)Oc3c(C)c(O)c4c(c3C2=O)C(=O)C=C(NC(=O)C(C)=C/C=C\C(C)C(O)C(C)C2OC(C)(C)OC(C1C)C2C)C4=O (centres undefined)	> 19.5	2.4 µM	–
COc1ccc(-c2nnc3cc(C)n4nnnc4n23)cc1OC	> 200	> 200 µM	–
O=C(NC(OCc1ccccc1)(C(F)(F)F)C(F)(F)F)OCc1ccccc1	> 200	32.4 µM	–
O=C1OC(c2ccccc2)=N/C1=C/c1ccc2c(c1)OCO2	> 24.5	> 24.5 µM	–
CCOC(=O)C(=O)Nc1ccc(Cl)c(C(F)(F)F)c1	–	–	inactive
C#C/C=C\CCCC/C=C\C#CC#CCCCC#CC#C[C@H](COS(=O)(=O)O)OS(=O)(=O)O	30.9	> 200 µM	–
O=C(/C=C/c1ccc(/C=C/C(=O)c2ccc(O)cc2)cc1)c1ccc(O)cc1	> 200	26.9 µM	–

SMILES	EC50 [µM]	IC50	outcome
COc1ccc(/C=C2\CCC(C)C3=C2NC(=S)NC3c2ccc(OC)c(OC)c2)cc1OC (centres undefined)	> 200	11.2 µM	–
CCCC1=NNc2n[nH]c(=S)n2N1	> 132	58.9 µM	–
CCc1n[nH]c(=O)n1-n1c(C)ccc1C	> 200	> 200 µM	–
O=c1[nH]nc(Nc2ccccc2)c2nnn(C3CCCCC3)c12	> 174	> 174 µM	–
CC(C)CCC[C@@H](C)C1CCC2[C@@H]3CCC4C[C@@H](CCCC=C(c5cc(Cl)c(O)c(C(=O)O)c5)c5cc(Cl)c(O)c(C(=O)O)c5)CC[C@]4(C)C3CC[C@@]21C (some centres undefined)	63.1	166 µM	–
O=C1NCCCNCCCNCCCNC(=O)c2cccc1n2	> 200	186 µM	–
CCCCCCNCCCNc1c2ccccc2nc2cccc([N+](=O)[O-])c12	> 2	0.138 µM	–
O=C(CCCCCCCCCCc1ccccc1)C1=C(O)C(O)CCC1=O (centres undefined)	–	–	inactive
Cc1cc(-c2ccccc2)[s+]s1	> 200	89.1 µM and 174 µM	–
CCn1c(SCC(=O)NNC(=S)Nc2ccc(Cl)cc2)nc2ccccc2c1=O	> 200	95.5 µM	–
S=c1nc2[nH]c3ccccc3c2n[nH]1	> 200	> 200 µM	–
COc1ccc2c(ccc3nc(CCC(=O)O)n(C)c(=O)c32)c1	> 794	229 µM	–
Cc1ccc2nc3c(C)c(Cl)c(=O)cc-3sc2c1	> 19.1	16.2 µM	–
CCCC(=O)N/S(=N/S(=O)(=O)c1ccc(Cl)cc1)C(Cl)(Cl)Cl (centres undefined)	162	> 200 µM	–
O=C(O)CNC(=O)OCCCCOC(=O)NCC(=O)O	> 851	> 851 µM	–
CSc1nnc(SCc2nn3c(=O)cc(C)nc3s2)s1	> 200	> 200 µM	–
CCCCCCCCCCN(CCCCCCCCCC)C(=O)COc1c2cc(C(C)(C)C)cc1Cc1cc(C(C)(C)C)cc(c1OCC(=O)N(CCCCCCCCCC)CCCCCCCCCC)Cc1cc(C(C)(C)C)cc(c1OCC(=O)N(CCCCCCCCCC)CCCCCCCCCC)Cc1cc(C(C)(C)C)cc(c1OCC(=O)N(CCCCCCCCCC)CCCCCCCCCC)C2	> 50.1	3.39 µM	–
Cc1nc2ccccc2c(=O)n1NC(=S)NC1CCCCC1	> 4.57	> 4.57 µM	–
CCC(O)(Cc1ccc(OC)cc1)c1ccc(OC)cc1 (centres undefined)	> 200	123 µM	–
COC(=O)C1=CC(O)CCC1c1ccc(OC)cc1 (centres undefined)	> 363	> 363 µM	–
NNC(N)=Nc1cccc2ccccc12	> 200	> 200 µM	–
NCCc1cc2c3c(c1)CCCN3CCC2	> 200	11.2 µM	–

SMILES	EC50 [µM]	IC50	outcome
C/C(=C\CO)CCC1=C(C=O)C[C@H](OC2OCC(O)C(O)C2O)C2[C@@](C)(CO)CCC[C@]12C (some centres undefined)	> 263	> 263 µM	–
N#Cc1c(N)c(-c2ccc(Cl)cc2)c(F)c2ccccc12	178	> 200 µM	–
CC(C)CCC[C@@H](C)[C@H]1CC[C@H]2[C@@H]3CC[C@H]4C[C@@H](CCCC(c5ccc(O)c(C(=O)O)c5)c5ccc(O)c(C(=O)O)c5)CC[C@]4(C)[C@H]3CC[C@]12C	64.6	> 100 µM	–
CN1C2CCC1[C@@H](CO)[C@@H](O)C2 (some centres undefined)	> 1200	> 1200 µM	–
Cc1c(CN)c(C)c(CN)c(C)c1CN	> 200	97.7 µM	–
O=C1C[C@H](c2ccccc2)C2(C(=O)c3ccccc3C2=O)[C@@H](c2ccccc2)C1	51.3	102 µM	–
CNS(=O)(=O)NN(C)S(=O)(=O)c1ccc(C)cc1	> 617	> 200 µM	–
Cc1occc1C(=S)Nc1ccc(Cl)c(C(=O)OC(C)C2CC2)c1 (centres undefined)	0.0234	47.9 µM	–
C#Cc1c(C)c(/C=C/C(C)=C\C(=O)OC)n(C)c1C	> 28.2	> 28.2 µM	–
CC(=O)C(N1CCCCC1)C(O)(C(F)(F)F)C(F)(F)F (centres undefined)	> 200	91.2 µM	–
Cc1ccc(S(=O)CC(CF)OCn2cc(C)c(=O)[nH]c2=O)cc1 (centres undefined)	–	–	inactive
CCOC(=O)c1ncn2c1[nH]c(=O)c1ccccc12	> 7.41	> 7.41 µM	–
COC(=O)C1CC2c3c(c4ccccc4n3C)CC(C1=O)N2C (centres undefined)	–	–	inactive
O=C(CBr)N1CCC2(CC1)SSC1(CCN(C(=O)CBr)CC1)S2	> 200	0.575 µM	–
O=C(C=Nc1ccccc1S)c1cccs1	> 5.89	> 5.89 µM	–
c1ccc(SSc2ccccn2)nc1	> 200	5.13 µM	–
Cc1cc(-c2ccc(N=Nc3cc(S(=O)(=O)O)c4cccnc4c3O)c(C)c2)ccc1N=Nc1cc(S(=O)(=O)O)c2cccnc2c1O	60.3	85.1 µM	–
COc1ccc(C2(C(OC)OC)NC(=O)N(C)C2=O)cc1 (centres undefined)	> 200	> 200 µM	–
COC(=O)C1Cc2c([nH]c3ccccc23)-c2[nH]c3ccccc3c2CC(NC(C)=O)C(=O)NCC(=O)N1 (centres undefined)	> 200	> 200 µM	–
Nc1ccc(/C=C/c2ccnc3ccccc23)cc1	19.5	> 200 µM	–
COc1cccc(NC(=O)CC(=O)N2N=C(n3ccc4ccccc43)CC2c2ccccc2)c1 (centres undefined)	–	–	inactive
Cc1ccc(N=Nc2c(C)c(C#N)c(=S)n(C3OC(CO)C(O)C(O)C3O)c2-c2ccccc2)cc1 (centres undefined)	> 200	18.6 µM	–

SMILES	EC50 [µM]	IC50	outcome
COC1/C=C\OC2(C)Oc3c(C)c(O)c4c(O)c(c(/C=N\NC(=O)CC(=O)N/N=C/c5c6c(O)c7c(O)c(C)c8c(c7c5O)C(=O)C(C)(O/C=C/C(OC)C(C)C(OC(C)=O)C(C)C(O)C(C)C(O)C(C)/C=C/C=C(C)C(=O)N6)O8)c(O)c4c3C2=O)NC(=O)/C(C)=C\C=C/C(C)C(O)C(C)C(O)C(C)C(OC(C)=O)C1C (centres undefined)	> 115	87.1 µM	–
CC1CN1c1c(C(=O)/C=C/c2ccccc2)c(-c2ccccc2)nn(C)c1=O (centres undefined)	> 67.6	12.6 µM	–
CN(C)S(=O)(=O)N1C(=O)c2ccccc2C1=O	> 102	> 102 µM	–
C#CC(O)/C=C/C(O)CCCC(O)CC#CC(O)C#CC(O)CCCC(O)/C=C/CCCCCC(=O)CCCCCCCCCCCCCC(O)C(O)C#CC(=O)O (centres undefined)	> 100	58.9 µM	–
CC1(C)Oc2ccccc2N2O[C@@H]3C(=O)N(c4ccccc4)C(=O)[C@@H]3C21c1ccccc1 (some centres undefined)	–	–	inactive
O=C(Nc1nc2ncn(CCO)c2c(=O)[nH]1)c1ccccc1	> 832	> 832 µM	–
COc1nc2c(c(O)c(C)c(=O)n2OC2OC(COC(C)=O)C(OC(C)=O)C(OC(C)=O)C2OC(C)=O)c(=O)n1C (centres undefined)	> 61.7	> 61.7 µM	–
CCOC(=O)C1=C(N)SCCC1	> 1320	257 µM	–
O=c1n(Cc2ccccc2)c2ccccc2n1CC1CS1 (centres undefined)	> 45.7	19.5 µM	–
O=C1C2=C(c3ccccc31)C(c1ccc([N+](=O)[O-])cc1)NC(=S)N2 (centres undefined)	> 138	28.2 µM	–
COC(OC)(c1ccccc1)C(Br)Br	–	–	inactive
CN(C)CCn1cnc2ncccc2c1=O	–	–	inactive
NC(Cc1ccc(CP(=O)(O)O)cc1)C(=O)O (centres undefined)	> 200	> 200 µM	–
COc1ccc(/C(C)=N/NC(N)=S)cc1OC	–	–	inactive
CC1(C)CC(=O)C2C(C1)Nc1ccccc1NC2c1ccccc1[N+](=O)[O-] (centres undefined)	> 61.7	> 61.7 µM	–
COc1ccc(NC(=S)Nc2cc(C)ccn2)cc1	> 200	> 200 µM	–
O=C(O)c1ccc(NC(=O)c2ccccc2[Se][Se]c2ccccc2C(=O)Nc2ccc(C(=O)O)cc2)cc1	13.8	18.6 µM	–
CCC(C)c1c(NC(=O)c2ccccc2)o[nH]c1=O (centres undefined)	> 200	> 200 µM	–
S=C1NC2(CCCCC2)N2C(=S)NC3(CCCCC3)N12	–	–	inactive
